What all share (type): cell-based, human
Assay [1] has as its system hiPSC-CMs. Kind of assay: Real-time PCR / immunostaining of cardiac gene expression in hiPSC-CMs. The procedure: For quantitative analysis of gene expression, RNA was extracted with a lysis buffer (Qiagen) from hiPSC-CMs and stored at −80° C. Total RNA from each sample was purified from cell lysate using a RNA purification kit (Qiagen). cDNA was made using iScript cDNA synthesis kit (BioRad). Quantitative PCR was performed using a 96-well thermocycler system (Biorad) with SYBR Green substrate (Affymetrix) for 40 cycles. All primers sequences were obtained from the PrimerBank (Massachusetts General Hospital/Harvard Medical School) online database. […] Day 12 hiPSC-CMs were cultured in CHIR continuously for 2 months with serial passaging followed by CHIR withdrawal for an additional month.
For orientation: In qPCR the cycle at which signal appears reflects the starting amount.

Assay [2] deals with hiPSC-CMs. Kind of assay: Sarcomere alignment and contractility on micropatterns. To be noted: C59 added to cells previously treated with CHIR (CHIR>C59). The protocol: Cells were plated on soft substrates with micropatterned proteins on top. After 3-6 days of culture high resolution movies (Sony Microscopy) were recorded for at least 10 individual cells per group and motion velocity analysis was processed digitally. After recordings, cells were fixed and used for immunohistochemistry and confocal imaging. Sarcomere alignment was quantified with Image J software. CM maturation is accompanied by the formation of highly structured sarcomere, bi- or multinucleation, and cell cycle exit (Bassat et al., 2017; Bersell et al., 2009; Senyo et al., 2014; Uygur and Lee, 2016). […] To address this, age-matched hiPSC-CMs exposed to media containing DMSO (CTR) were compared to ones that have undergone 3 passages in media containing 2.0 μM CHIR using various phenotypic assays of CM function. To assess sarcomere alignment, CHIR and CTR hiPSC-CMs on 7:1 aspect ratio micropatterns (Ribeiro et al., 2015) were cultured and immunostained with TnT and sarcomeric actinin antibodies.

Assay [3] relates to hiPSC-CMs. Kind of assay: ki67/pHH3 proliferation and binucleation of hiPSC-CMs (immunofluorescence). The note with it: day 12 hiPSC-CMs (P0), 24 hrs treatment. The protocol: Immunohistochemistry was performed with the incubation of primary antibodies overnight followed by 2 hours of incubation with various Alexa fluorescence conjugated secondary antibodies. Images were made with confocal (Zeiss LSM 710) or regular immunofluorescence microscopy (Leica DM IL LED). Primaries used in this study were cardiac troponin T (MS-295, Fisher), Ki67 (ab15580, Abcam), pHH3 (#9701, Cell Signaling), aurora B (ab2254, Abcam), alpha sarcomeric actinin ([…], Sigma-Aldrich), MLC2V (ab48003, Abcam), phospo AKT […] (#9275, Cell Signaling). […] To examine this, the percentage was determined of troponin T (TnT) positive hiPSC-CMs that express the cell cycle marker ki67 or the mitosis marker phospho-histone H3 (pHH3) at each passage after treatment with CHIR or DMSO (CTR) (FIG. 2A-C). […] The short-term (24 hrs) changes were assessed in proliferation rate of day 12 hiPSC-CMs (P0) after treatment with CHIR-, CTR-, or C59, a specific inhibitor of Wnt signaling (FIG. 2I-J).

A further assay relates to TCF/LEF. As to the kind of experiment: TOPFlash TCF/LEF luciferase reporter in day 12 hiPSC-CMs. The protocol:
Day 12 hiPSC-CMs were transfected for 48h with a TCF reporter plasmid (TOPflash M50, Addgene) or the mutant reporter plasmid (TOPflash M51, Addgene) and the use of Lipofectamine 3000 (Invitrogen). 72h after transfection cells were treated with various small molecules for 24h. Cells were lysed and mixed with luciferase substrate (Promega) and the firefly luciferase expression was measured with a 96-well micro plate reader (Fisher).

Assay [4] deals with hiPSC-CMs. Kind of assay: CHIR-mediated hiPSC-CM proliferation with pathway inhibitors.
The test system of assay [5] is hiPSC-CMs. Kind of assay: Cell cycle activity in well-differentiated hiPSC-CMs (ki67, pHH3, cell count). To be noted: 5 μM VPC23019 together with S1P. The protocol: To address this, well-differentiated hiPSC-CMs were generated (e.g. day 30 or later) using chemically-defined protocols (Burridge et al. 2014; Churko et al. 2013; Sharma et al. 2015) (Movie S1) and treated them with S1P/LPA or CHIR or both (FIG. 18A). The presence of S1P/LPA receptors in these cells was first validated (FIG. 21). Immunofluorescence staining was then performed for ki67, a marker of cell cycle activity, and phospho Histone H3 (pHH3), a mitosis marker, in cardiac troponin T (TnT) positive cells.

For a further assay, the system named is YAP. As to the kind of experiment: YAP nuclear accumulation in hiPSC-CMs. The note with it: day 10 or day 30 hiPSC-CMs. The procedure:
Given the well-known role of Hippo/Yap signaling in regulating cardiomyocyte and non-myocyte proliferation and regeneration (Yusuf et al. 2012; Heallen et al. 2011; Morikawa et al. 2017; Leach et al. 2017; von Gise et al. 2012), the ability of bioactive lipids was assessed to promote nuclear accumulation of Yap (FIG. 23). […] Consequently, no increase in nuclear YAP accumulation was observed following bioactive lipid treatment (FIG. 23B).

Assay [6] relates to hiPSC-CMs. Kind of assay: Wnt receptor ligands on hiPSC-CM expansion and cell-cycle reactivation. To be noted: day 12 proliferative hiPSC-CMs. From the text: Reactivating Wnt signaling may promote proliferation in aged, non-proliferative CMs rather than simply maintain pre-existing proliferation (FIG. 6A). […]

Regarding `Cc1cc(-c2ccc(CC(=O)Nc3ccc(-c4cccnc4)cc3)cc2)ccn1` [C59], the “expression of maturation, excitation, contractility and metabolism markers” value with hiPSC-CMs [1] (3 additional weeks after CHIR day 12 to 28, compared with continued CHIR) was “upregulation of markers associated with cardiomyocyte maturation”. For the same molecule, the MYL2 immunofluorescence staining result in the assay on hiPSC-CMs [1] (compared with CHIR-treated cells) is listed as “increase in immunofluorescence staining for MYL2”. Also, the “sarcomere organization after C59” value with hiPSC-CMs [2] is listed as “reorganization of their sarcomeres to a state similar to the age-matched control hiPSC-CMs”. The “ki67 expression / proliferation rate” value in the assay on hiPSC-CMs [3] is “did not result in a decreased rate of hiPSC-CM proliferation”.

For the molecule `NC1(c2ccc(-c3nc4ccn5c(=O)[nH]nc5c4cc3-c3ccccc3)cc2)CCC1` [MK2206], in the assay on TCF/LEF (CHIR and MK2206, 24 hrs), the TCF/LEF luciferase activity result is reported as “not due to the downregulation of downstream β-catenin signaling”. Also, in the assay with hiPSC-CMs [4] (CHIR and MK2206 vs CHIR alone), the “mitotic cells expressing pAKT” value is reported as “far fewer mitotic cells”. Moreover, in the assay on hiPSC-CMs [4] (CHIR and MK2206 vs CHIR alone, 6 days), the CM replication entry is on record as “decreased”.

With `Cc1ccc(/C=N/NC(=O)c2ccccc2Oc2ccccc2)o1` [PNU74654], the “CHIR-induced activation of TCF/LEF luciferase reporter” value with TCF/LEF (CHIR in the presence of PNU74654, 24 hrs) was “abolished”. For the same molecule, in the assay on hiPSC-CMs [1] (co-treatment with CHIR, qPCR), the “CHIR-induced Wnt target gene expression” value was “abolish this increase” and the “markers of hiPSC-CM maturation (MYL2, MYH7, MYOM1)” value is listed as “recovered fully”. Also, in the assay with hiPSC-CMs [4] (CHIR in the presence of PNU74654 vs CHIR alone), the “decrease of CHIR-mediated hiPSC-CM proliferation” value is given as about 50%.

Consider `CCCCCCCCc1cccc(NC(=O)[C@H](N)COP(=O)(O)O)c1` [VPC23019], for which, in the assay with hiPSC-CMs [5], the “expression of ki67 in S1P-treated hiPSC-CMs” value is listed as “reduced”.

As for lysophosphatidic acid [LPA], in the assay with YAP, the YAP nuclear accumulation entry is “No significant (N.S.) increase in YAP nuclear accumulation”.

B1: Wnt3A: purified Wnt3A protein (R&D systems), Wnt receptor ligand (protein, UniProt P56704 19-352, looked up)
Protein Wnt-3a: SYPIWWSLAVGPQYSSLGSQPILCASIPGLVPKQLRFCRNYVEIMPSVAEGIKIGIQECQHQFRGRRWNCTTVHDSLAIFGPVLDKATRESAFVHAIASAGVAFAVTRSCAEGTAAICGCSSRHQGSPGKGWKWGGCSEDIEFGGMVSREFADARENRPDARSAMNRHNNEAGRQAIASHMHLKCKCHGLSGSCEVKTCWWSQPDFRAIGDFLKDKYDSASEMVVEKHRESRGWVETLRPRYTYFKVPTERDLVYYEASPNFCEPNPETGSFGTRDRTCNVSSHGIDGCDLLCCGRGHNARAERRREKCRCVFHWCCYVSCQECTRVYDVHTCK
With B1, in the assay with hiPSC-CMs [6], the “CM expansion (TnT positive cell number)” value was “promoted CM expansion”.

The values above are taken from US12516293B2, “Reagents and methods with Wnt agonists and bioactive lipids for generating and expanding cardiomyocytes” (The Board of Trustees of the Leland Stanford Junior …, priority 2018, dated 2026).
